# According to patent US11078216B2, “Bisaryl amides as NRF2 activators” (GLAXOSMITHKLINE INTELLECTUAL PROPERTY DEVELOPMENT LIMITED, priority 2016, dated 2021):
# Tested on: NRF2 (NQO1 activity as marker for NRF2 activation), BEAS-2B cells
# Experiment: BEAS-2B NQO1 MTT Assay
# Type: cell-based
# Conditions: Homo sapiens, EC50 of NQO1 specific activity induction, 48 hours incubation, read-out: EC50
# Excerpt: NAD(P)H:quinone oxidoreductase 1 (NQO1), also called DT diaphorase, is a homodimeric FAD-containing enzyme that catalyzes obligatory NAD(P)H-dependent two-electron reductions of quinones and protects cells against the toxic and neoplastic effects of free radicals and reactive oxygen species arising from one-electron reductions. The transcription of NQO1 is finely regulated by NRF2, and thus NQO1 activity is a good marker for NRF2 activation. On day one, frozen BEAS-2B cells (ATCC) are thawed in a water bath, counted, and re-suspended at a concentration of 250,000 cells/mL. Fifty microliters of cells are plated in 384 well black clear-bottomed plates. Plates are incubated at 37° C., 5% CO2 overnight. On day two, plates are centrifuged and 50 nL of compound or controls are added to the cells. Plates are then incubated at 37° C., 5% CO2 for 48 hours. On day four, medium is aspirated from the plate and crude cell lysates are made by adding 13 uL of 1× Cell Signaling Technologies lysis buffer with 1 Complete, Mini, EDTA-free Protease Inhibitor Tablet (Roche) for each 10 mL of lysis buffer. After lysis plates are incubated for 20 minutes at room temperature. Two microliters of lysate are removed for use in Cell Titer Glo assay (Promega) and MTT cocktail is prepared (Prochaska et. al. 1998) for measurement of NQO1 activity. Fifty microliters of MTT cocktail is added to each well, plate is centrifuged, and analyzed on an Envision plate reader (Perkin Elmer) using Absorbance 570 nm label for 30 minutes. Product formation is measured kinetically and the EC50 of NQO1 specific activity induction is calculated by plotting the change in absorbance (Delta OD/min) versus the log of compound concentration followed by 3-parameter fitting.
# EC50s<1 nM (+++++), EC50s 1 nM-10 nM (++++), EC50s 10 nM-100 nM (+++), EC50s 100 nM-1 uM (++), EC50s 1-10 uM (+), EC50s>10 uM (−), or were not determined (ND).
row,Structure (SMILES),EC50 [nM]
1,"CC[C@@H]1CN(Cc2cc(C(CC(=O)Nc3cccnc3)c3ccc(C#N)cc3C)ccc2C)S(=O)(=O)c2cccnc2O1 (single isomer, unassigned) [Example 69]",100 to 1000
2,"CC[C@@H]1CN(Cc2cc([C@H](CC(=O)Nc3cccnc3)c3ccc4c(nnn4CC)c3C)ccc2C)S(=O)(=O)c2cccnc2O1 [Example 1, (S)-3-(3-(((R)-4-Ethyl-1,1-dioxido-3,4-dihydro-2H-pyrido[2,3-b][1,4,5]oxathiazepin-2-yl)methyl)-4-methylphenyl)-3-(1-ethyl-4-methyl-1H-benzo[d][1,2,3]triazol-5-yl)-N-(pyridin-3-yl)propanamide]",10 to 100
3,"CC[C@@H]1CN(Cc2cc([C@H](CC(=O)Nc3cnsc3)c3ccc4c(nnn4CC)c3C)ccc2C)S(=O)(=O)c2cccnc2O1 [Example 2, (S)-3-(3-(((R)-4-Ethyl-1,1-dioxido-3,4-dihydro-2H-pyrido[2,3-b][1,4,5]oxathiazepin-2-yl)methyl)-4-methylphenyl)-3-(1-ethyl-4-methyl-1H-benzo[d][1,2,3]triazol-5-yl)-N-(isothiazol-4-yl)propanamide]",10 to 100
4,"CC[C@@H]1CN(Cc2cc([C@H](CC(=O)NCc3ncco3)c3ccc4c(nnn4CC)c3C)ccc2C)S(=O)(=O)c2cccnc2O1 [Example 3, (S)-3-(3-(((R)-4-Ethyl-1,1-dioxido-3,4-dihydro-2H-pyrido[2,3-b][1,4,5]oxathiazepin-2-yl)methyl)-4-methylphenyl)-3-(1-ethyl-4-methyl-1H-benzo[d][1,2,3]triazol-5-yl)-N-(oxazol-2-ylmethyl)propanamide]",100 to 1000
5,"CC[C@@H]1CN(Cc2cc([C@H](CC(=O)NC3COC3)c3ccc4c(nnn4CC)c3C)ccc2C)S(=O)(=O)c2cccnc2O1 [Example 4, (S)-3-(3-(((R)-4-Ethyl-1,1-dioxido-3,4-dihydro-2H-pyrido[2,3-b][1,4,5]oxathiazepin-2-yl)methyl)-4-methylphenyl)-3-(1-ethyl-4-methyl-1H-benzo[d][1,2,3]triazol-5-yl)-N-(oxetan-3-yl)propanamide]",100 to 1000
6,"CC[C@@H]1CN(Cc2cc([C@H](CC(=O)NC3CCS(=O)(=O)C3)c3ccc4c(nnn4CC)c3C)ccc2C)S(=O)(=O)c2cccnc2O1 (stereo partly drawn) [Example 5, (3S)-N-(1,1-Dioxidotetrahydrothiophen-3-yl)-3-(3-(((R)-4-ethyl-1,1-dioxido-3,4-dihydro-2H-pyrido[2,3-b][1,4,5]oxathiazepin-2-yl)methyl)-4-methylphenyl)-3-(1-ethyl-4-methyl-1H-benzo[d][1,2,3]triazol-5-yl)propanamide]",100 to 1000
7,"CC[C@@H]1CN(Cc2cc([C@H](CC(=O)n3ccc(N)n3)c3ccc4c(nnn4CC)c3C)ccc2C)S(=O)(=O)c2cccnc2O1 [Example 6, (S)-1-(3-Amino-1H-pyrazol-1-yl)-3-(3-(((R)-4-ethyl-1,1-dioxido-3,4-dihydro-2H-pyrido[2,3-b][1,4,5]oxathiazepin-2-yl)methyl)-4-methylphenyl)-3-(1-ethyl-4-methyl-1H-benzo[d][1,2,3]triazol-5-yl)propan-1-one]",1 to 10
8,"CC[C@@H]1CN(Cc2cc([C@H](CC(=O)n3nccc3N)c3ccc4c(nnn4CC)c3C)ccc2C)S(=O)(=O)c2cccnc2O1 [Example 7, (S)-1-(5-Amino-1H-pyrazol-1-yl)-3-(3-(((R)-4-ethyl-1,1-dioxido-3,4-dihydro-2H-pyrido[2,3-b][1,4,5]oxathiazepin-2-yl)methyl)-4-methylphenyl)-3-(1-ethyl-4-methyl-1H-benzo[d][1,2,3]triazol-5-yl)propan-1-one]",1 to 10
9,"CC[C@@H]1CN(Cc2cc([C@H](CC(=O)NCc3ncc[nH]3)c3ccc4c(nnn4CC)c3C)ccc2C)S(=O)(=O)c2cccnc2O1 [Example 8, (S)-N-((1H-Imidazol-2-yl)methyl)-3-(3-(((R)-4-ethyl-1,1-dioxido-3,4-dihydro-2H-pyrido[2,3-b][1,4,5]oxathiazepin-2-yl)methyl)-4-methylphenyl)-3-(1-ethyl-4-methyl-1H-benzo[d][1,2,3]triazol-5-yl)propanamide]",100 to 1000
10,"CC[C@@H]1CN(Cc2cc([C@H](CC(=O)Nc3ccnn3C)c3ccc4c(nnn4CC)c3C)ccc2C)S(=O)(=O)c2cccnc2O1 [Example 9, (S)-3-(3-(((R)-4-Ethyl-1,1-dioxido-3,4-dihydro-2H-pyrido[2,3-b][1,4,5]oxathiazepin-2-yl)methyl)-4-methylphenyl)-3-(1-ethyl-4-methyl-1H-benzo[d][1,2,3]triazol-5-yl)-N-(1-methyl-1H-pyrazol-5-yl)propanamide]",100 to 1000
11,"CC[C@@H]1CN(Cc2cc([C@H](CC(=O)Nc3cnccc3C)c3ccc4c(nnn4CC)c3C)ccc2C)S(=O)(=O)c2cccnc2O1 [Example 10, (S)-3-(3-(((R)-4-Ethyl-1,1-dioxido-3,4-dihydro-2H-pyrido[2,3-b][1,4,5]oxathiazepin-2-yl)methyl)-4-methylphenyl)-3-(1-ethyl-4-methyl-1H-benzo[d][1,2,3]triazol-5-yl)-N-(4-methylpyridin-3-yl)propanamide]",100 to 1000
12,"CC[C@@H]1CN(Cc2cc([C@H](CC(=O)Nc3cnccc3OC)c3ccc4c(nnn4CC)c3C)ccc2C)S(=O)(=O)c2cccnc2O1 [Example 11, (S)-3-(3-(((R)-4-Ethyl-1,1-dioxido-3,4-dihydro-2H-pyrido[2,3-b][1,4,5]oxathiazepin-2-yl)methyl)-4-methylphenyl)-3-(1-ethyl-4-methyl-1H-benzo[d][1,2,3]triazol-5-yl)-N-(4-methoxypyridin-3-yl)propanamide]",10 to 100
13,"CC[C@@H]1CN(Cc2cc([C@H](CC(=O)Nc3cncc(C(F)(F)F)c3)c3ccc4c(nnn4CC)c3C)ccc2C)S(=O)(=O)c2cccnc2O1 [Example 12, (S)-3-(3-(((R)-4-Ethyl-1,1-dioxido-3,4-dihydro-2H-pyrido[2,3-b][1,4,5]oxathiazepin-2-yl)methyl)-4-methylphenyl)-3-(1-ethyl-4-methyl-1H-benzo[d][1,2,3]triazol-5-yl)-N-(5-(trifluoromethyl)pyridin-3-yl)propanamide]",10 to 100
14,"CC[C@@H]1CN(Cc2cc([C@H](CC(=O)Nc3cncc(OC)c3)c3ccc4c(nnn4CC)c3C)ccc2C)S(=O)(=O)c2cccnc2O1 [Example 13, (S)-3-(3-(((R)-4-Ethyl-1,1-dioxido-3,4-dihydro-2H-pyrido[2,3-b][1,4,5]oxathiazepin-2-yl)methyl)-4-methylphenyl)-3-(1-ethyl-4-methyl-1H-benzo[d][1,2,3]triazol-5-yl)-N-(5-methoxypyridin-3-yl)propanamide]",10 to 100
15,"CC[C@@H]1CN(Cc2cc([C@H](CC(=O)Nc3ccc(C(F)(F)F)nc3)c3ccc4c(nnn4CC)c3C)ccc2C)S(=O)(=O)c2cccnc2O1 [Example 14, (S)-3-(3-(((R)-4-Ethyl-1,1-dioxido-3,4-dihydro-2H-pyrido[2,3-b][1,4,5]oxathiazepin-2-yl)methyl)-4-methylphenyl)-3-(1-ethyl-4-methyl-1H-benzo[d][1,2,3]triazol-5-yl)-N-(6-(trifluoromethyl)pyridin-3-yl)propanamide]",100 to 1000
16,"CC[C@@H]1CN(Cc2cc([C@H](CC(=O)Nc3ccc(C)nc3)c3ccc4c(nnn4CC)c3C)ccc2C)S(=O)(=O)c2cccnc2O1 [Example 15, (S)-3-(3-(((R)-4-Ethyl-1,1-dioxido-3,4-dihydro-2H-pyrido[2,3-b][1,4,5]oxathiazepin-2-yl)methyl)-4-methylphenyl)-3-(1-ethyl-4-methyl-1H-benzo[d][1,2,3]triazol-5-yl)-N-(6-methylpyridin-3-yl)propanamide]",100 to 1000
17,"CC[C@@H]1CN(Cc2cc([C@H](CC(=O)NCc3nccn3C)c3ccc4c(nnn4CC)c3C)ccc2C)S(=O)(=O)c2cccnc2O1 [Example 16, (S)-3-(3-(((R)-4-Ethyl-1,1-dioxido-3,4-dihydro-2H-pyrido[2,3-b][1,4,5]oxathiazepin-2-yl)methyl)-4-methylphenyl)-3-(1-ethyl-4-methyl-1H-benzo[d][1,2,3]triazol-5-yl)-N-((1-methyl-1H-imidazol-2-yl)methyl)propanamide]",1000 to 10000
18,"CC[C@@H]1CN(Cc2cc([C@H](CC(=O)Nc3nccn3C)c3ccc4c(nnn4CC)c3C)ccc2C)S(=O)(=O)c2cccnc2O1 [Example 17, (S)-3-(3-(((R)-4-Ethyl-1,1-dioxido-3,4-dihydro-2H-pyrido[2,3-b][1,4,5]oxathiazepin-2-yl)methyl)-4-methylphenyl)-3-(1-ethyl-4-methyl-1H-benzo[d][1,2,3]triazol-5-yl)-N-(1-methyl-1H-imidazol-2-yl)propanamide]",100 to 1000
19,"CC[C@@H]1CN(Cc2cc([C@H](CC(=O)Nc3cncc4ccccc34)c3ccc4c(nnn4CC)c3C)ccc2C)S(=O)(=O)c2cccnc2O1 [Example 18, (S)-3-(3-(((R)-4-Ethyl-1,1-dioxido-3,4-dihydro-2H-pyrido[2,3-d][1,4,5]oxathiazepin-2-yl)methyl)-4-methylphenyl)-3-(1-ethyl-4-methyl-1H-benzo[d][1,2,3]triazol-5-yl)-N-(isoquinolin-4-yl)propanamide]",10 to 100
